“And” between values parts separate entries of the source, which are not always exact repeats. Equal entries are not always repeated.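 The compound was tested at five concentrations on cells cultured in 96-well plates, with a 48-hour exposure period. GI50: concentration for 50% inhibition of growth. TGI denotes the concentration required for complete inhibition of growth.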
Legend:
Assay in all cases: growth of human tumour cells (NCI), 48 h
MOLT-4 leukemia = tested on: MOLT-4 leukemia
TK-10 renal = tested on: TK-10 renal
MDA-MB-435 = tested on: MDA-MB-435
K-562 leukemia = tested on: K-562 leukemia
DU-145 prostate = tested on: DU-145 prostate
PC-3 prostate = tested on: PC-3 prostate
UACC-62 melanoma = tested on: UACC-62 melanoma
EKVX NSCLC = tested on: EKVX NSCLC
OVCAR-4 ovarian = tested on: OVCAR-4 ovarian
SNB-75 CNS = tested on: SNB-75 CNS

SMILES	GI50 (MOLT-4 leukemia) [µM]	TGI (MOLT-4 leukemia)	GI50 (TK-10 renal) [µM]	TGI (TK-10 renal)	GI50 (MDA-MB-435) [µM]	TGI (MDA-MB-435)	GI50 (K-562 leukemia)	TGI (K-562 leukemia)	GI50 (DU-145 prostate) [µM]	TGI (DU-145 prostate)	GI50 (PC-3 prostate) [µM]	TGI (PC-3 prostate)	GI50 (UACC-62 melanoma) [µM]	TGI (UACC-62 melanoma)	GI50 (EKVX NSCLC) [µM]	TGI (EKVX NSCLC)	GI50 (OVCAR-4 ovarian) [µM]	TGI (OVCAR-4 ovarian)	GI50 (SNB-75 CNS) [µM]	TGI (SNB-75 CNS)
COc1cc(/C=C/C(=O)/C=C/c2cc(OC)c3c(c2)OCO3)cc2c1OCO2	9	> 100 µM	30.3	> 100 µM	1.92	4.22 µM	22.9 µM	> 100 µM	18.4	> 100 µM	72.2	> 100 µM	16.3	> 100 µM	> 100	> 100 µM	52.8	> 100 µM	8.55	42.5 µM
COc1cc(C)ccc1C(=O)c1ccc(C)cc1OC	7.66	> 100 µM	9.15	> 100 µM	0.295	1.08 µM	0.619 µM	> 100 µM	3.45	83.6 µM	4.08	> 100 µM	4.45	> 100 µM	5.29	> 100 µM	45.1	> 100 µM	3.25	> 100 µM
O=C(NCC1CC1)c1ccc(-c2cccc(C(=O)NC3CC3)c2)cc1	> 25	> 25 µM	> 25	> 25 µM	> 25	> 25 µM	> 25 µM	> 25 µM	> 25	> 25 µM	> 25	> 25 µM	> 25	> 25 µM	> 25	> 25 µM	> 25	> 25 µM	> 25	> 25 µM
Nc1ncn([C@@H]2S[C@H](CO)[C@@H](O)[C@@H]2F)c(=O)n1	0.172	> 100 µM	> 100	> 100 µM	0.692	> 100 µM	1.81 µM	> 100 µM	0.508	> 100 µM	–	> 100 µM	5.01	> 100 µM	8.97	> 100 µM	> 100	> 100 µM	43.4	> 100 µM
O=S(=O)(/N=c1\scc(-c2ccccc2)n1-c1ccccc1)c1ccc(N2N=C3c4ccccc4CC3C2c2ccc(Cl)cc2)cc1 (stereo unspecified)	18.5	> 100 µM	29.6	> 100 µM	24.2	> 100 µM	20 µM	55.5 µM	54.3	> 100 µM	19.1	> 100 µM	32.7	> 100 µM	61.1	> 100 µM	63.8	> 100 µM	> 100	> 100 µM
C/C(=N/O)c1cccc(Nc2cc(-n3nnc4ccccc43)nc3ccccc23)c1	4.05	> 40 µM	13.6	50.2 µM	13.7	37.1 µM	5.91 µM	82.1 µM	11.6	41.3 µM	8.87	33.5 µM	12.7	34 µM	8.07	> 32 µM	18.8	> 100 µM	35.6	> 100 µM
COC(=O)C1=C(O)C(C(=O)OC)C2CC(=O)CC1C2(C)C (stereo unspecified)	–	> 100 µM	–	> 100 µM	–	> 100 µM	–	> 100 µM	–	> 100 µM	–	> 100 µM	–	> 100 µM	–	> 100 µM	–	> 100 µM	–	> 100 µM
CCc1c2c(nc3ccc(OCc4ccc(B(O)O)cc4)cc13)-c1cc3c(c(=O)n1C2)COC(=O)[C@]3(O)CC	0.0101	> 100 µM	0.226	–	0.076	3.5 µM	0.0792 µM	> 100 µM	< 0.0158	6.05 µM	0.164	> 75.5 µM	< 0.01	0.155 µM	0.614	> 64 µM	0.399	29.7 µM	< 0.0167	0.321 µM
N#C[Se]Cc1cc(-c2ccccc2)n(-c2ccc(S(N)(=O)=O)cc2)n1	0.433	4.36 µM	2.35	7.83 µM	0.605	2.45 µM	1.15 µM	9.88 µM	0.735	2 µM	0.711	3.56 µM	1.66	3.75 µM	0.688	12.6 µM	2.61	8.16 µM	0.59	3.51 µM
O=C(Nc1cccc(Cl)c1)Nn1cnnc1	> 50	> 100 µM	> 50	> 100 µM	> 50	> 100 µM	> 50 µM	> 100 µM	> 50	> 100 µM	> 50	> 100 µM	> 50	> 100 µM	–	> 100 µM	> 50	> 100 µM	> 50	> 100 µM
CC1CC(C)CC(C)C(O)/C(C#N)=C/C=C/CC(C2CCCC2C(=O)O)OC(=O)CC(O)C(C)C1 (stereo unspecified)	0.0269	0.0641 µM and 0.209 µM	–	0.089 µM and 0.432 µM	0.0281	0.0871 µM and 0.0731 µM	0.0263 µM and < 0.0121 µM	0.066 µM and 0.256 µM	0.132	0.659 µM and 0.896 µM	0.0434	0.205 µM and 0.208 µM	0.0112	0.0296 µM and 0.015 µM	0.0518	0.384 µM and 0.465 µM	0.126	0.51 µM and 1.89 µM	0.0267	0.0853 µM and 0.11 µM
CO/N=C(\COc1ccc2c(c1)[nH]c1ccccc12)c1ccc(OC)cc1	27.9	> 100 µM	13.6	66.7 µM	43.3	> 100 µM	31 µM	> 100 µM	> 100	> 100 µM	18.3	> 100 µM	26.6	> 100 µM	26	> 100 µM	10.5	> 100 µM	6.66	> 100 µM
